We go through seven compounds from patent publication US6486096B1, “Herbicidal compositions with acylated aminophenylsulfonylureas” (priority 1998, dated 2002).

Values joined by “and” are separate entries in the source; they are usually repeats but may differ in a detail not shown here. Equal values may be shown once. Read-outs that look alike come from different tables or passages of the source.

Holding throughout (assay type): in vivo
The subject of one data set is SIDSP = Sida spinosa. Put plainly: Herbicidal action, visual scoring. Particulars: post-emergence. Here is the method: (§1) The herbicidal activity of the active substances or active substance mixtures was scored visually with the aid of the treated parcels in comparison with untreated control parcels. Damage to and development of all above-ground parts of plants was recorded here. Scoring was carried out on a percentage scale (100% action=all plants died; 50% action=50% of the plants and green plant parts died; 0% action=no discernible action=like control parcels. The mean of the scoring values of 4 parcels in each case was taken.
(§2) Seeds or rhizome pieces of monocotyledonous and dicotyledonous weeds are placed in sandy loam soil in pots, covered with soil and grown in the greenhouse under good growth conditions (temperature, humidity, water supply). Three weeks after sowing, the test plants in the three-leaf stage are treated with the compositions according to the invention. The compositions according to the invention which are formulated as wettable powders or as emulsion concentrates are sprayed in various dosages on the green parts of the plants at an application rate of 600 to 800 l of water/ha (converted). After the test plants have remained in the greenhouse for about 3 to 4 weeks under optimal growth conditions, the effect of the products is scored visually by comparison with untreated controls. When applied post-emergence, too, the compositions according to the invention have a good herbicidal activity against a broad spectrum of economically important grass weeds and broad-leaved weeds.
(§3) Crop plants were raised outdoors under natural outdoor conditions on plots in which seeds or rhizome sections of typical harmful plants had been sown or the natural weed infestation was used. The treatment with the compositions according to the invention was carried out after the emergence of the harmful plants and the crop plants, as a rule in the 2 to 4-leaf stage; in some cases (as indicated) the application of individual active substances or active substance combinations was carried out pre-emergence (cf. Example 1) or as a sequence treatment, in some cases pre-emergence and/or post-emergence.
(§4) After the application, e.g. 2, 4, 6 and 8 weeks after application, the action of the preparations was scored visually in comparison with untreated controls (cf. score in Example 1). […] The crop plants, however, were not damaged or were only insignificantly damaged as a result of the treatment with the herbicidal compositions.

The test system of the next data set is corn. The note with it: post-emergence. The procedure: as §1, §3, §4
The test system of data set [1] is Sethoxidime-resistant corn (SR). Put plainly: Damage on crop plants (selectivity), visual scoring. Particulars: Table 22, post-emergence, scoring 4 weeks after application, g of A.S./ha by row: r7 50, r8 25, r9 12.5, r10 400, r11 200, r12 100, r13 12.5 + 100, r14 12.5 + 200, r15 25 + 100. Here is the method: as §1, §3
After the application, e.g. 2, 4, 6 and 8 weeks after application, the action of the preparations was scored visually in comparison with untreated controls (cf. score in Example 1). […]

For data set [2], the system named is CHEAL = Chenopodium album. Put plainly: Herbicidal action, visual scoring. Particulars: Table 4; post-emergence; scoring 40 days after application; g of A.S./ha: 30, 45, 60, 300, 45 + 300. The procedure: as §1, §2, §3, §4
For data set [3], the system named is IPOPU = Ipomoea purpureum. Put plainly: Herbicidal action, visual scoring. The note with it: Table 3, post-emergence, scoring 6 weeks after application, g of A.S./ha 15, 30, 45, 60, 300, 30 + 300. Here is the method: as §1, §2, §3, §4
Data set [4] has as its system POLCO = Polygonum convolvulus. The experiment in a line: Herbicidal action, visual scoring. Particulars: Table 4; post-emergence; scoring 40 days after application; g of A.S./ha: 30, 45, 60, 300, 45 + 300. The procedure:
The herbicidal activity of the active substances or active substance mixtures was scored visually with the aid of the treated parcels in comparison with untreated control parcels. Damage to and development of all above-ground parts of plants was recorded here. Scoring was carried out on a percentage scale (100% action=all plants died; 50% action=50% of the plants and green plant parts died; 0% action=no discernible action=like control parcels. The mean of the scoring values of 4 parcels in each case was taken. […]
as §3, §4

In data set [5] the test system is ABUTH = Abutilon theophrasti. Put plainly: Herbicidal action, visual scoring. Particulars: Table 2; scoring 3 weeks after application; (pe) pre-emergence, (po) post-emergence; g of A.S./ha by row: r6 35 (po), r7 1120 + 1120 (pe), r9 (1120 + 1120) (pe) + 35 (po). The procedure:
as §1, §2, §3, §4

In another data set the test system is Avena sterilis. Put plainly: Herbicidal action, visual scoring. The note with it: Table 8; post-emergence; scoring 46 days after application; g of A.S./ha by row: r7 60, r8 270, r9 450, r10 60 + 270. The procedure:
as §1, §2, §3, §4

Another data set concerns Chrysanthemum coronarium. The experiment in a line: Herbicidal action, visual scoring. Particulars: Table 8; post-emergence; scoring 46 days after application; g of A.S./ha by row: r7 60, r8 270, r9 450, r10 60 + 270. The procedure: as §1, §2, §3, §4
In data set [6] the test system is EPHHL = Euphorbia heterophylla. The experiment in a line: Herbicidal action, visual scoring. Particulars: Table 13, post-emergence, scoring 3 weeks after application, g of A.S./ha by row: r7 30, r8 100, r9 150, r10 30 + 50. The procedure:
as §1, §2, §3, §4

For data set [7], the system named is PHBPU = Pharbitis purpurea. The experiment in a line: Herbicidal action, visual scoring. The note with it: Table 2; scoring 3 weeks after application; (pe) pre-emergence, (po) post-emergence; g of A.S./ha by row: r6 35 (po), r7 1120 + 1120 (pe), r9 (1120 + 1120) (pe) + 35 (po). Here is the method: as §1, §2, §3, §4
Another data set has as its system SOLNI. The experiment in a line: Herbicidal action, visual scoring. Particulars: Table 10, post-emergence, scoring 3 weeks after application, g of A.S./ha by row: r7 120, r8 60, r9 30, r10 15, r11 12, r12 6, r13 3, r14 30 + 6, r16 15 + 6, r18 30 + 3. The procedure:
as §1, §2, §3, §4

Data set [8] deals with XANOR (Xanthium orientalis). The experiment in a line: Herbicidal action, visual scoring. Particulars: Table 10, post-emergence, scoring 3 weeks after application, g of A.S./ha by row: r7 120, r8 60, r9 30, r10 15, r20 2000, r21 1000, r22 500, r23 30 + 1000, r25 15 + 1000, r27 30 + 500. The procedure: as §1, §2, §3, §4
The test system of data set [9] is ECHCG = Echinochloa crus-galli. Put plainly: Herbicidal action, visual scoring. The note with it: Table 12, post-emergence, scoring 3 weeks after application, g of A.S./ha by row: r6 120, r7 60, r8 30, r9 15, r10 1000, r11 500, r12 250, r13 30 + 500, r14 30 + 250, r15 15 + 250, r16 40, r17 20, r18 10, r19 30 + 20, r20 15 + 20, r21 30 + 10, r22 200, r23 100, r24 50, r25 30 + 100, r26 15 + 100, r27 30 + 50. Here is the method: as §1, §2, §3, §4

Another data set concerns AGRRE = Agropyron repens. Put plainly: Herbicidal action, visual scoring. Particulars: Table 6, post-emergence, scoring 3 weeks after application, g of A.S./ha by row: r6 30, r7 45, r8 60, r9 2.5, r10 5, r11 7.5, r12 30 + 2.5, r13 30 + 5. The procedure:
as §1, §2, §3, §4

Where [10] appears, read: Table 5, scoring 3 weeks after application, g of A.S./ha by row: r6 15, r7 30, r8 45, r9 60, r10 900, r11 30 + 900.
[11] abbreviates: Table 3, scoring 6 weeks after application, g of A.S./ha 15, 30, 45, 60, 300, 30 + 300.

Take `CCCCCCCCSC(=O)Oc1cc(Cl)nnc1-c1ccccc1` [(B2.3.3), pyridate]: the “Herbicidal action against SIDSP” value with SIDSP = Sida spinosa (setting [10]) is given as 10%. Further, the Damage on corn in the data set with corn (setting [10]) came out at 0%.
On to `CCC/C(=N\OCC)C1=C(O)CC(CC(C)SCC)CC1=O` (centres unmarked) [(B1.6.33), sethoxydim], for which the “Damage on corn (SR)” value in [1] is 3% and 2% and 0%.
Take `N#Cc1cc(Br)c(O)c(Br)c1` [(B2.2.1), bromoxynil]: the “Herbicidal action CHEAL” value in data set [2] is listed as 75%. For the same compound, the “Herbicidal action IPOPU” value in data set [3] is 53%. In addition, the “Herbicidal action SIDSP” value in the data set with SIDSP = Sida spinosa (setting [11]) turned out to be 70%. Further, the “Herbicidal action POLC0” value in [4] worked out at 45%. In addition, the Damage on corn in the data set on corn (setting [11]) is recorded as 0%; with corn (Table 4, scoring 40 days after application, g of A.S./ha: 30, 45, 60, 300, 45 + 300) it was 0%.
Turning to `COc1cc(OC)nc(NC(=O)NS(=O)(=O)c2cc(NC=O)ccc2C(=O)N(C)C)n1` [(A1.1), N-[N-(4,6-dimethoxypyrimidin-2-yl)aminocarbonyl]-2-(dimethylaminocarbonyl)-5-(formylamino)benzenesulfonamide], the “Herbicidal action ABUTH” value in data set [5] was determined as 88%. Moreover, in the data set on Avena sterilis, the “Herbicidal action against Avena sterilis” value is reported as 83%. Besides, in the data set on Chrysanthemum coronarium, the “Herbicidal action against Chrysanthemum coronarium” value is recorded as 20%. In addition, in data set [6], the “Herbicidal action EPHHL” value worked out at 70%. For the same compound, the “Herbicidal action IPOPU” value was determined as 43% in data set [3] (15 g of A.S./ha), 67% in [3] (30 g of A.S./ha), 70% in data set [3] (45 g of A.S./ha) and 83% in [3] (60 g of A.S./ha). The “Herbicidal action PHBPU” value in data set [7] is listed as 45%. In addition, the “Herbicidal action SOLNI” value with SOLNI (15 g active substance per ha) was 65%; in the data set with SOLNI (30 g active substance per ha) it was 83%; in the data set with SOLNI (60 g active substance per ha), 90%; in the data set with SOLNI (120 g active substance per ha), 90%. Moreover, the figures for the “Herbicidal action XANOR” value in [8] (15 g active substance per ha), in data set [8] (30 g active substance per ha) and in [8] (120 g active substance per ha) were 45%, 55% and 60%, respectively.
With `CC(C)N.O=C(O)CNCP(=O)(O)O` [(B3.2.1), glyphosate-isopropylammonium], the “Herbicidal action ECHCG” value in [9] (250 g active substance per ha) was 73%; in data set [9] (500 g active substance per ha), 83%; in data set [9] (1000 g active substance per ha), 98%.
Turning to `CS(=O)(=O)c1ccc(C(=O)C2C(=O)CCCC2=O)c([N+](=O)[O-])c1` [(B1.4.4), 2-(4-Mesyl-2-nitrobenzoyl)cyclohexane-1,3-dione], the “Herbicidal action EPHHL” value stood at 63% in [6] (100 g of active substance per ha) and 73% in data set [6] (150 g of active substance per ha).
`COc1nc(C)nc(NC(=O)NS(=O)(=O)c2cc(I)ccc2C(=O)O)n1` [(B2.4.4), iodosulfuron]: the “Herbicidal action against AGRRE” value in the data set with AGRRE = Agropyron repens (2.5 g of A.S./ha) is on record as 0%; in the data set with AGRRE = Agropyron repens (5 g of A.S./ha), 10%.
